PMC6071317 (European journal of medicinal chemistry, 2017)

Key:
[1] = biological target: human α1β3γ2 GABAA receptors (Homo sapiens, UniProt P14867+P28472); experiment: Modulation of [3H]muscimol binding to GABAA receptor membranes from HEK293 cells; conditions: 2 nM [3H]muscimol
[2] = Partition coefficient; assay type: physicochemical; conditions: difference to alphaxalone
[3] = biological target: purified human α1β3γ2 GABAA receptor (Homo sapiens, UniProt P14867+P28472); assay type: binding
[4] = biological target: purified α1β3γ2 GABAARs (Homo sapiens, UniProt P14867+P28472); assay type: binding; conditions: 3.5 μM [3H]azietomidate
Sequence of purified α1β3γ2 GABAARs (P14867 28-456): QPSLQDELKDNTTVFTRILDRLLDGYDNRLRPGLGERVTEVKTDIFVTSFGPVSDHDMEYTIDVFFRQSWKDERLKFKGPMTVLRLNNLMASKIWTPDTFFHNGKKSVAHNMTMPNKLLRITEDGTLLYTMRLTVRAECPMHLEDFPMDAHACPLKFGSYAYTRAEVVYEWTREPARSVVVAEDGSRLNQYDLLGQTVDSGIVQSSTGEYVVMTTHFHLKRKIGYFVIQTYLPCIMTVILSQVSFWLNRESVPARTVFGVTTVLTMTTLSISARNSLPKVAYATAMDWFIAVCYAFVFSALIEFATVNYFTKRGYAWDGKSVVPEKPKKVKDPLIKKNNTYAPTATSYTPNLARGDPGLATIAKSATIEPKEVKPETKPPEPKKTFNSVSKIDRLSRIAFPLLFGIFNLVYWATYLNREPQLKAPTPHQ
Sequence of purified α1β3γ2 GABAARs (P28472 26-473): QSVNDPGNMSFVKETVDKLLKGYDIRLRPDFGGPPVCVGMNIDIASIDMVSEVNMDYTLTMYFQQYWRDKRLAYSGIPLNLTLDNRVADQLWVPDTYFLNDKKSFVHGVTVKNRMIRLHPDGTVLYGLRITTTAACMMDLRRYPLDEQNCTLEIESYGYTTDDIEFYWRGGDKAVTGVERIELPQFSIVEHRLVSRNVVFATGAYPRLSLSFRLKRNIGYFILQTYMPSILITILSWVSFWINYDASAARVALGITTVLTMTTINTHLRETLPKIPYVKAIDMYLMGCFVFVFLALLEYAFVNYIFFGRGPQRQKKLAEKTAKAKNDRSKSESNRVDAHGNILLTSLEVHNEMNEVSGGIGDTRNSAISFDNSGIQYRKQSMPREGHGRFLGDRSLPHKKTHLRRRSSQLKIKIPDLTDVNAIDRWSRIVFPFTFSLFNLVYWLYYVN
Sequence of purified α1β3γ2 GABAARs (P18507 40-475 partner): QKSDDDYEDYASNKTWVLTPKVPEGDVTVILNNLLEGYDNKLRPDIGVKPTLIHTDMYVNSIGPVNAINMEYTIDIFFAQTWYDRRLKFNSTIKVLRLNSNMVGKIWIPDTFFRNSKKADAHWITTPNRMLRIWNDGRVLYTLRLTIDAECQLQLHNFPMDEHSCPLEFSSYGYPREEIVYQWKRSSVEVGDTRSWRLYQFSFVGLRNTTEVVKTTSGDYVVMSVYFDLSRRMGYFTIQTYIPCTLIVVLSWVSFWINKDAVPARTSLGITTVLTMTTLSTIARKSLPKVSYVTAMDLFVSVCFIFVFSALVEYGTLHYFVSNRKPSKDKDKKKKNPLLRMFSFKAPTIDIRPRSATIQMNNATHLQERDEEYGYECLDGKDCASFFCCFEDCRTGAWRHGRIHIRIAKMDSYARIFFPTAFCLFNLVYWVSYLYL

[5] = tested on: GABAAR; conditions: read-out: Potentiation EC50; bulk phase concentration; cited from earlier work

Sequence of human α1β3γ2 GABAA receptors (P14867 28-456): as the sequence (P14867 28-456) above
Sequence of human α1β3γ2 GABAA receptors (P28472 26-473): as the sequence (P28472 26-473) above
Sequence of human α1β3γ2 GABAA receptors (P18507 40-475 partner): as the sequence (P18507 40-475 partner) above
Sequence of purified human α1β3γ2 GABAA receptor (P14867 28-456): as the sequence (P14867 28-456) above
Sequence of purified human α1β3γ2 GABAA receptor (P28472 26-473): as the sequence (P28472 26-473) above
Sequence of purified human α1β3γ2 GABAA receptor (P18507 40-475 partner): as the sequence (P18507 40-475 partner) above

## CC(=O)[C@H]1CC[C@H]2[C@@H]3CC[C@H]4C[C@H](O)CC[C@]4(C)[C@H]3[C@@H](OC(=O)c3c(F)c(F)c(N=[N+]=[N-])c(F)c3F)C[C@]12C [F4N3Bzox-AP, 11β-(4-Azido-2,3,5,6-tetrafluorobenzoyloxy)-3α-hydroxy-5α-pregnane-20-one]
[1]
  Efficacy of modulation of [3H]muscimol binding: 228 ± 4%
  Hill coefficient of enhancement of [3H]muscimol binding: 1.9 ± 0.1
[2]
  Higher lipophilicity as compared to alphaxalone: ca. 1.5 log P units

## CC(c1ccccc1)n1cncc1C(=O)OCCC1(C)N=N1 (stereo not drawn) [[^3H]azietomidate, reference compound]
[3]; [3H]azietomidate subunit photolabeling
  Pharmacologically specific subunit photolabeling (inhibitable by etomidate): 80%
[4]
  α-subunits photolabeled: 10%

## CC(=O)[C@H]1CC[C@H]2[C@@H]3CC[C@H]4C[C@H](O)CC[C@]4(C)[C@H]3C3(C[C@]12C)N=N3 [11-aziAP, 11-Aziallopregnanolone]
[1]
  Efficacy of modulation of [3H]muscimol binding: 227 ± 2%
  Hill coefficient of enhancement of [3H]muscimol binding: 1.1 ± 0.2
[3]; 0.3 and 1 μM
  Enhancement of photolabeling by both probes ([3H]azietomidate, [3H]R-mTFD-MPAB): to the same extent as GABA or alphaxalone

## CC(=O)[C@H]1CC[C@H]2[C@@H]3CC[C@H]4C[C@H](O)CC[C@]4(C)[C@H]3C(=O)C[C@]12C [alphaxalone, Alphaxalone]
[5]
  EC50: 600 nM
